Reference: patent US5166348A, “Bornyl and isobornyl esters of carboxylic acids of condensed tetrahydroquinoxalines” (Uralsky politekhnichesky institut, priority 1989, dated 1992)

Test system: influenza virus strains resistant to remantadine
Assay type: in vivo
Conditions: chick embryos, 1 mg/embryo

Structure (SMILES): CC1=C(C(=O)OC2CC3CCC2(C)C3(C)C)C2Nc3ccccc3N(C)C2O1 (stereo not shown) [compound 1a, isobornyl ester of 2,9-dimethyl-3a,4,9,9a-tetrahydrofuro [2,3-b] quinoxaline-3-carboxylic acid]
- sensitivity of strains resistant or only slightly sensitive to remantadine (in words): Some virus strains that are resistant or only slightly sensitive to remantadine were sensitive to the proposed compound 1a
